Measurements: ChEMBL document CHEMBL1201862, “PubChem BioAssay data set” (2004)
The source made the active and inactive calls.

Key:
[1] = biological target: Kallikrein-7 (Homo sapiens, UniProt P49862); test: Fluorescence Intensity-based biochemical primary high throughput dose response assay to identify activators of kallikrein-7 (K7) zymogen.
[2] = biological target: Voltage-gated inwardly rectifying potassium channel KCNH2 (Homo sapiens, UniProt Q12809); test: concentration-dependent hERG rescue from blockers – cell-based, thallium flux, dose response (AID 2121); format: ADME
[3] = biological target: T1, Acyl-homoserine lactone acylase PvdQ (Pseudomonas aeruginosa (strain LESB58), UniProt Q9I194); test: PvdQ acylase enzyme activity blockers – biochemical, fluorescence, plate reader and imaging, cherry-picks, dose response (AID 493231)
T1 sequence (Q9I194 whole entry): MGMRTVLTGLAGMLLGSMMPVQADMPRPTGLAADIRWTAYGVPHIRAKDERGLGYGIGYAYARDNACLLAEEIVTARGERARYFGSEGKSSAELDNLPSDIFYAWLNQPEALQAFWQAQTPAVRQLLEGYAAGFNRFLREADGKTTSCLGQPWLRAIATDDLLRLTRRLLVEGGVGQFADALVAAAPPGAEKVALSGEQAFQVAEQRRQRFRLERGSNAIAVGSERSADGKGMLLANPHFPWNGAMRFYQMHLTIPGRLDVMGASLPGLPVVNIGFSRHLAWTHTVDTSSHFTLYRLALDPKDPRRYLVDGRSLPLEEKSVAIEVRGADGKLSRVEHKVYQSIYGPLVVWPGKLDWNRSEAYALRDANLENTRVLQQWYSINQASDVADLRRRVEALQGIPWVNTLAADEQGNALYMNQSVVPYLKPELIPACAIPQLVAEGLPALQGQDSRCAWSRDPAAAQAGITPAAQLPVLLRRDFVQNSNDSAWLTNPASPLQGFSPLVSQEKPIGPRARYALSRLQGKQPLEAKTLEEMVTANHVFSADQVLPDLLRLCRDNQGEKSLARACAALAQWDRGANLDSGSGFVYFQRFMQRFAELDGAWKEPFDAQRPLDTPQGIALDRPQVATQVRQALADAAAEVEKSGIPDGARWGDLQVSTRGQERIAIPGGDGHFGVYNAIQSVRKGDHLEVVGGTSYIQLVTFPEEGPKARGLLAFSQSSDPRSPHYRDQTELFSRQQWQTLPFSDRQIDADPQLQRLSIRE

[4] = viability loss in THP-1 monocytes – THP-1 cells, cytotoxicity control for Vif-APOBEC3G degradation inhibitor project, dose response (AID 1117359); format: functional; conditions: THP-1
[5] = P. falciparum Dd2 growth inhibitors, dose response, SYBR Green, cherry-picked samples (AID 1159567); format: functional, cell-based
[6] = growth inhibition of PfATP4-mutant resistant parasites – NITD609-resistant line, SYBR Green, dry powder, dose response (AID 1159571); format: functional, cell-based;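 note: parasites synchronized at ring stage by sorbitol before testing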
[7] = growth inhibition of yeast DHODH-expressing 3D7 parasites – SYBR Green, dry powder samples, dose response (AID 1159570); format: functional, cell-based;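 note: parasite growth measured after 72 hours of compound exposure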
[8] = Dd2 malaria parasite growth inhibition potency – SYBR Green, dry powder samples, dose response (AID 1159566); format: functional, cell-based;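 note: potency for growth inhibition with lower SYBR green DNA signal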
[9] = test system: Streptococcus sp. 'group A'; test: Streptococcus pyogenes SK(-)GAS viability under kanamycin – luminescence, BacTiterGlo, confirmation, counter-screen for streptokinase expression inhibitor project, dose response (AID 1900); format: functional, organism-based
[10] = test system: Streptococcus; test: GAS UMAA2166 growth inhibition – luminescence, BacTiterGlo, counter-screen for streptokinase expression inhibitor project, dose response (AID 1915); format: functional, organism-based;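 note: potency for reduction of bacterial viability or growth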
[11] = microbe, parasite or virus in culture; format: functional; conditions: Mycobacterium tuberculosis
[12] = biological target: Major prion protein (Homo sapiens, UniProt P04156); format: functional, cell-based
[13] = cells
[14] = biological target: G-protein coupled receptor 55 (Homo sapiens, UniProt Q9Y2T6); test: selective activators of receptor GPR55 – imaging, U2OS cells, beta-arrestin-GFP redistribution, primary screen (AID 1961); format: functional
[15] = biological target: Cytochrome P450 3A4 (Homo sapiens, UniProt P08684);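 note: CYP3A4 tested as one member of a cytochrome P450 panel screen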
[16] = blockers of bursicon-stimulated LGR2 cAMP reporter – cell-based, HEK293, CRE-luciferase reporter, cherry pick, set 2, dose response (AID 743343); format: functional;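 note: transfected cells were stimulated with diluted bursicon conditioned medium after compound addition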
[17] = test system: HEK293; test: EBV LMP1 TES2 canonical NF-kB signalling blockers – cell-based, HEK293, luciferase, cherry-pick, dose response (AID 588343); format: functional; conditions: Homo sapiens
[18] = blockade of melanocortin 4 receptor signaling – cell-based, plate reader, cherry pick, counter-screen for LGR2 antagonist project, dose response (AID 743444); format: functional;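 note: transfected HEK 293 cells stimulated with alpha-MSH peptide; potency of inhibitors of the alpha-MSH evoked signal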
[19] = HepG2 cell cytotoxicity, dose response, cytotoxicity control for non-replicating M. tuberculosis project (AID 489018); format: functional; conditions: Mycobacterium tuberculosis
[20] = cells; format: functional
[21] = THP-1 cell cytotoxicity, dose response, cytotoxicity control for non-replicating M. tuberculosis project (AID 489025); format: functional
[22] = test system: HT-1080; test: HT1080 cell viability loss – fluorescence readout (AID 620); format: functional, cell-based; conditions: Homo sapiens
[23] = biological target: FAD-linked sulfhydryl oxidase ALR (Homo sapiens, UniProt P55789); test: ALR-catalysed DTT oxidation blockers – biochemical, H2O2 detection, luminescence, cherry-pick, dose response (AID 493248)
[24] = biological target: Luciferin 4-monooxygenase (Photinus pyralis, UniProt P08659); test: Counter Screen for Luciferase-based Assay Positives. [Related pubchem assays: 620, 618, 411 ]
[25] = biological target: Eukaryotic translation initiation factor 4E (Mus musculus, UniProt P63073); test: blockers of eIF4G binding by eIF4E – biochemical, TR-FRET, dose response (AID 855); format: functional;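 note: potency for disrupting eIF4E binding to eIF4GI seen as loss of FRET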
[26] = toxicity toward HepG2 liver cells – cell-based, plate reader, cherry-pick, antagonist series, cytotoxicity control, dose response (AID 743416); format: functional
[27] = biological target: Paired box protein Pax-8 (Homo sapiens, UniProt Q06710); test: PAX8 transcriptional activity inhibition in RMG-I – RMG-I cells, luciferase, cherry-pick, dose response (AID 687027); format: functional, cell-based;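 note: luciferase reporter driven by Pax8 target thyroperoxidase promoter measured by SteadyGlo luminescence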
[28] = OVCAR8 cell viability loss – plate reader, dry powder samples, PAX8 project, dose response (AID 743197); format: functional, cell-based; conditions: OVCAR-8
[29] = OVCAR-3 cell viability loss – plate reader, dry powder samples, PAX8 inhibitor project, dose response (AID 743044); format: functional, cell-based

COc1ccc2cc(C(=O)C3CCCN(C(=O)c4cccnc4)C3)ccc2c1 (stereo not given)
EC50 [1]: 23.7 µM (inactive)

O=C(NC(=S)Nc1ccccc1)c1cc(-c2ccccc2)nc2ccccc12
EC50 [2]: 0.38 µM (active)

CO/N=C/c1ccc(Sc2ccccc2)c([N+](=O)[O-])c1
AC50 [3]: 97.2 µM (active)

OCCCNc1[nH]cnc2c3ccccc3nc1-2
CC50 [4]: > 40 µM (active)

O=C(NC1CCCCCCC1)c1cccc(Cl)c1
AC50 [3]: 5.02 µM (active)

COc1ccc2c3c(n(C)c2c1)[C@@H](CO)N(C(=O)C1CCCC1)CC31CN(C(=O)Nc2cccc(F)c2)C1
AC50 [5]: 1.32 µM (active)
AC50 [6]: 1.24 µM (active)
AC50 [7]: 0.818 µM (active)
AC50 [8]: 1.88 µM (active)

O=C(NC(=S)Nc1nc(-c2ccc(Br)cc2)cs1)c1ccco1
EC50 [2]: 7.39 µM (active)

Cc1cccc(/C=C2/SC(N/N=C3\CC4CCC3(C)C4(C)C)=NC2=O)c1 (stereo not given)
EC50 [2]: 0.12 µM (active)
EC50 [9]: 1.83 µM (active)
EC50 [10]: 1.3 µM (active)
CC50 [11]: > 40 µM (active)

COC(=O)[C@H](CC1(c2cn(S(=O)(=O)CC[Si](C)(C)C)c3ccccc23)C(=O)Nc2ccccc21)NC(=O)OC(C)(C)C (stereo not given in full)
IC50 [12]: 11.7 µM (inactive)
IC50 [13]: > 138 µM (inactive)

COc1ccc2c(c1)CCC1(C)CC(=O)C(Br)=C21 (stereo not given)
IC50 [12]: 3.21 µM (active)
IC50 [13]: > 138 µM (inactive)

N#CC1=C(N)OC2=C(CC/C2=C\c2ccccc2)C1c1ccccc1 (stereo not given)
EC50 [14]: > 32 µM (inactive)
AC50 [15]: 39.8 µM (inconclusive)

CCCOC(=O)Oc1ccc2c(=O)c(Oc3cc(C)cc(C)c3)coc2c1
EC50 [1]: 3.19 µM (active)

COc1ccc(OCC(=O)Nc2nccs2)cc1
AC50 [16]: 5.35 µM (active)
AC50 [17]: 4.63 µM (active)
AC50 [18]: 5.99 µM (active)

C=CCn1c(C)cc(C2=NN=C(NCc3ccccc3)SC2)c1C
CC50 [19]: > 20 µM (active)
IC50 [20]: 10.8 µM (active)
CC50 [21]: 13.8 µM (active)

Cc1nc2cc(-c3nc4cc(N)ccc4o3)ccc2[nH]1
EC50 [22]: > 50 µM (not active)
AC50 [23]: 1.72 µM (active)
EC50 [24]: > 100 µM (not active)

CC(=O)Nc1cccc(NC(=S)Nc2ccc(F)c(Cl)c2)c1
IC50 [25]: 50 µM (inactive)

Cc1ccc(S(=O)(=O)N2[C@@H](CO)CO[C@H]2CC(=O)OCc2ccccc2)cc1
AC50 [26]: > 52 µM (inactive)

COc1cc(NC(=O)c2ccco2)c(OC)cc1NC(=O)CCC(=O)Nc1cc(C)ccc1C
EC50 [1]: 26.8 µM (inactive)

O=C(NC1CCSC1)c1cccc(Cl)c1 (stereo not given)
AC50 [3]: 4.11 µM (active)

Cc1cc(C(=O)CSc2nnc(-c3cccs3)o2)c(C)n1-c1ccccc1
EC50 [22]: 22.6 µM (active)
EC50 [24]: > 100 µM (not active)
AC50 [17]: 5.59 µM (active)

CC(C)CCNC(=O)Cn1c2c(c(-c3ccccc3Cl)cc1=O)CCC2
CC50 [4]: > 40 µM (active)

C[C@@H]1CN([C@H](C)CO)C(=O)c2cc(NC(=O)c3ccccc3)ccc2O[C@@H](C)CCCCO[C@@H]1CN(C)Cc1ccc(C(F)(F)F)cc1
AC50 [27]: 8.24 µM (active)
AC50 [28]: > 70 µM (inactive)
AC50 [29]: 50.2 µM (active)

Cc1ccc(-c2nc(-c3ccccc3)no2)cc1
EC50 [22]: > 50 µM (not active)
EC50 [24]: 1.67 µM (active)

Cc1nc(SC2CCOC2=O)c2c(C)c(C)sc2n1 (stereo not given)
IC50 [12]: 1.93 µM (active)
IC50 [13]: > 138 µM (inactive)
